From article PMC9105233, “The Nitrogen Atom of Vitamin B6 Is Essential for the Catalysis of Radical Aminomutases” (International Journal of Molecular Sciences, 2022)

Molecular target: T1, lysine 5,6-aminomutase (5,6-LAM) (Acetoanaerobium sticklandii, UniProt E3PRJ4+E3PRJ5)
T1 construct: gene kamD
Settings: dAdoCbl, NH4-EPPS pH 8.5, reaction 4 min, PLP analogue replacing PLP

T1 sequence (E3PRJ5 whole entry): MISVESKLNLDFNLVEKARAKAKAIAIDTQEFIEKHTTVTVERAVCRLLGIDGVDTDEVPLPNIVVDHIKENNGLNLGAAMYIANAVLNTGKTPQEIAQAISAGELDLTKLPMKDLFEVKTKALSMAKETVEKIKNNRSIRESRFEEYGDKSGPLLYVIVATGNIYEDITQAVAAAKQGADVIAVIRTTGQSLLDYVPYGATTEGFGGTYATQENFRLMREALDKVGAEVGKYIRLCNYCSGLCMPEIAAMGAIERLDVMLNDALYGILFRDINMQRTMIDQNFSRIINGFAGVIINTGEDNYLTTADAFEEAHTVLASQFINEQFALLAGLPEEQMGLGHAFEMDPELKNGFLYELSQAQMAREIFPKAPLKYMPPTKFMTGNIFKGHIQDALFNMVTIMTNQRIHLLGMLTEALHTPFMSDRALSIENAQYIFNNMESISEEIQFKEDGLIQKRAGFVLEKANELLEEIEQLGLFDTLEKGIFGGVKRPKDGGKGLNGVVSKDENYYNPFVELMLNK
T1 sequence (E3PRJ4 whole entry): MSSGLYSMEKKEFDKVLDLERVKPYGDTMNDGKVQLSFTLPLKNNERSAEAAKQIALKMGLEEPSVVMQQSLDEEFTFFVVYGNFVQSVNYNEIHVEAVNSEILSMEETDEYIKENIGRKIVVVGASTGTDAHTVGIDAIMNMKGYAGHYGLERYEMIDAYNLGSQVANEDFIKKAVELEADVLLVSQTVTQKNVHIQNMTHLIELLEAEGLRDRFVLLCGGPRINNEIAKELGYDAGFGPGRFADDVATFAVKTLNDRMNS

Compound: Cc1ccc(COP(=O)(O)O)c(C=O)c1O [dAPLP]
- EPR of substrate-related radical with 4-thia-L-lysine: this spectrum obtained with dAPLP can be attributed to the corresponding S^•
